# Results as given in paper PMC5998037, “Glutamine 89 is a key residue in the allosteric modulation of human serine racemase activity by ATP” (Scientific Reports, 2018).
# Where a chain is given by its changes, count along the chain named. Values joined by “and” are separate entries in the source; they are usually repeats but may differ in a detail not shown here. Identical values can stand only once. Like-named read-outs stand apart in the source and are kept apart here.
# What was measured:
# StTdcB = tested on: StTdcB; parameters: method as in PMID 17046821; conditions: 5 mM AMP; cited from earlier work
# hSR [1] = biological target: T1, hSR (Homo sapiens, UniProt Q9GZT4); assay: D-Ser dehydration (LDH-coupled assay); type: biochemical; conditions: D-Ser dehydration by hSR
# T1 construct: His tag; made in house; host or cells: Escherichia coli (co-expressed with chaperones)
# T1 sequence (Q9GZT4 1-340): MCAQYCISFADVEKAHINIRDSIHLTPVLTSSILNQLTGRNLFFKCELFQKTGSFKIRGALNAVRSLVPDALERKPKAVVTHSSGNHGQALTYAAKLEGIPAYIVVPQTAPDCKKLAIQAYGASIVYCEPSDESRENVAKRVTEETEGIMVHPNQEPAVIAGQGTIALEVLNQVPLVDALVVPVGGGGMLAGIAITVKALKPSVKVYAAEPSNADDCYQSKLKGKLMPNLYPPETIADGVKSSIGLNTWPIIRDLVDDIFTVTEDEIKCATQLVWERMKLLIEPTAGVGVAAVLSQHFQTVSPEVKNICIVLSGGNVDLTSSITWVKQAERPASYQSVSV
# Protocol: (§1) The initial velocity of L-serine dehydration by hSR was monitored by a coupled assay with lactate dehydrogenase (LDH)[5] as previously reported. Nicotinamide adenine dinucleotide (NADH) consumption was followed at 340 nm using a Varian Cary4000 spectrophotometer. The assay solution in buffer A contained 5 mM DTT, 30 U/ml LDH and 300 μM NADH. The concentration of magnesium used in the assay was always higher than or equal to the concentration of ATP. If not otherwise stated, it was set to 2 mM. The protein concentration used in the assay for L-Ser dehydration was 0.4 and 1.6 μM in the presence and absence of 2 mM ATP, respectively. The concentration used in the assay for D-Ser dehydration was 3.1 and 6.0 μM in the presence and absence of ATP, respectively.
# (§2) The half-maximal activation (EC50) caused by ATP binding to hSR was calculated with Eq. (1):1 vi/v0=a⋅[ATP]/EC50+[ATP] where vi is the velocity of the reaction catalysed by the enzyme in presence of a defined ATP concentration, v0 is the velocity of the reaction catalysed by the enzyme in the absence of ATP and a is the difference between the maximum and the basal activity. The dissociation constant (KD) of ligands for hSR calculated by fluorimetric titrations was calculated with Eq. (2):2 y=y0+a⋅[L]/KD+[L] where y is the fluorescence emission intensity, [L] is the ligand concentration, y0 is an offset and a is the amplitude. The fluorescence emission intensity was collected at 480 nm for glycine titration, at 492 nm for ATP titration and at 478 nm for ATP titration in the presence of glycine. The kinetic parameters were calculated using the Michaelis –Menten equation:3 v0=Vmax⋅[S]/Km+[S] where v0 is the initial enzymatic rate, Vmax is the rate at substrate saturation, Km is the Michaelis constant and [S] is the substrate concentration. Catalytic efficiency for the dehydratase activity of Q89A-hSR on D-Ser was calculated at [D-Ser] < Km, where equation (3) becomes v0≅Vmax/Km .
# Q89A-hSR [2] = biological target: T2, Q89A-hSR (Homo sapiens, UniProt Q9GZT4, Q89A); assay: D-Ser dehydration (LDH-coupled assay); type: biochemical; conditions: D-Ser dehydration by Q89A-hSR, ATP vs absence of nucleotide
# T2 construct: hexa-His; made in house; host or cells: E. coli BL21 CodonPlus (DE3)-RIL with GroEL/GroES
# T2 sequence (Q9GZT4 1-340 Q89A): T1 sequence (Q9GZT4 1-340) with Q89A
# Protocol: as §1, §2
# Q89M-hSR [3] = biological target: T3, Q89M-hSR (Homo sapiens, UniProt Q9GZT4, Q89M); assay: D-Ser dehydration (LDH-coupled assay); type: biochemical; conditions: D-Ser dehydration by Q89M-hSR, 2 mM ATP vs absence of nucleotide
# T3 construct: hexa-His; made in house; host or cells: E. coli BL21 CodonPlus (DE3)-RIL with GroEL/GroES
# T3 sequence (Q9GZT4 1-340 Q89M): T1 sequence (Q9GZT4 1-340) with Q89M
# Protocol: as §1, §2
# hSR [4] = biological target: T1, hSR; assay: L-Ser racemisation (DAAO-coupled discontinuous assay); type: biochemical; conditions: L-Ser racemisation by hSR, 2 mM ATP vs absence of nucleotide
# Protocol: (§3) The formation of D-serine as a function of L-serine concentration was determined using a discontinuous assay, based on oxidation of D-serine by the enzyme DAAO (Sigma Aldrich, A5222)[18],[37],[54]. This reaction produces hydrogen peroxide, that is used by the horseradish peroxidase to oxidize o-dianisidine dihydrochloride to form a chromophoric product. After the addition of sulphuric acid to increase the solubility, the concentration of this product can be measured at 550 nm. L-serine at various final concentrations was added to buffer A containing 1.5 µM hSR, in the absence and presence of 2 mM ATP. The reaction mixture was incubated at 37 °C and aliquots were periodically removed to determine D-serine concentration. L-serine was purified from any D-serine contaminations through 48 hours of incubation with 400 U/ml of DAAO and 100 U/ml of catalase, which were subsequently thermally inactivated. Absolute D-serine concentrations were determined using calibrations curves obtained by reacting known D-serine concentrations with DAAO. Absorbance signal was acquired by a Halo LED 96 plate reader (Dynamica Scientific, UK).
# as §2, with “The kinetic parameters were calculated using the Michaelis –Menten equation:3 v0=Vmax⋅[S]/Km+[S] where v0 is the initial enzymatic rate, Vmax is the rate at substrate saturation, Km is the Michaelis constant and [S] is the substrate concentration.” left out
# Q89A-hSR [5] = biological target: T2, Q89A-hSR; assay: as above; type: biochemical; conditions: L-Ser racemisation by Q89A-hSR, 2 mM ATP vs absence of nucleotide
# Protocol: as §3
# as §2, with “The kinetic parameters were calculated using the Michaelis –Menten equation:3 v0=Vmax⋅[S]/Km+[S] where v0 is the initial enzymatic rate, Vmax is the rate at substrate saturation, Km is the Michaelis constant and [S] is the substrate concentration.” left out
# Q89M-hSR [6] = biological target: T3, Q89M-hSR; assay: as above; type: biochemical; conditions: L-Ser racemisation by Q89M-hSR, 2 mM ATP vs absence of nucleotide
# Protocol: as §3
# as §2, with “The kinetic parameters were calculated using the Michaelis –Menten equation:3 v0=Vmax⋅[S]/Km+[S] where v0 is the initial enzymatic rate, Vmax is the rate at substrate saturation, Km is the Michaelis constant and [S] is the substrate concentration.” left out
# Q89A-hSR [7] = biological target: T2, Q89A-hSR; assay: Activation of L-Ser dehydratase activity by ATP; type: biochemical
# Protocol: (§4) Nicotinamide adenine dinucleotide (NADH) consumption was followed at 340 nm using a Varian Cary4000 spectrophotometer. The assay solution in buffer A contained 5 mM DTT, 30 U/ml LDH and 300 μM NADH. The concentration of magnesium used in the assay was always higher than or equal to the concentration of ATP. If not otherwise stated, it was set to 2 mM. […] The concentration used in the assay for D-Ser dehydration was 3.1 and 6.0 μM in the presence and absence of ATP, respectively.
# (§5) The fluorescence emission intensity was collected at 480 nm for glycine titration, at 492 nm for ATP titration and at 478 nm for ATP titration in the presence of glycine. The kinetic parameters were calculated using the Michaelis –Menten equation:3 v0=Vmax⋅[S]/Km+[S] where v0 is the initial enzymatic rate, Vmax is the rate at substrate saturation, Km is the Michaelis constant and [S] is the substrate concentration.
# Q89M-hSR [8] = biological target: T3, Q89M-hSR; assay: Activation of L-Ser dehydratase activity by ATP; type: biochemical
# Protocol: as §4, §5
# Q89A-hSR [9] = biological target: T2, Q89A-hSR; assay: L-Ser dehydration (LDH-coupled assay); type: biochemical; conditions: L-Ser dehydration by Q89A-hSR, 2 mM ATP vs absence of nucleotide
# Protocol: as §1, §2
# Q89M-hSR [10] = biological target: T3, Q89M-hSR; assay: L-Ser dehydration (LDH-coupled assay); type: biochemical; conditions: L-Ser dehydration by Q89M-hSR, 2 mM ATP vs absence of nucleotide
# Protocol: as §1, §2
# Q89M-hSR [11] = biological target: T3, Q89M-hSR; assay: Fluorimetric titrations (PLP fluorescence emission); type: binding
# Protocol: Fluorescence emission spectra upon excitation at 412 nm were collected using a FluoroMax-3 fluorometer (HORIBA Jobin Yvon, Kyoto, Japan) at 20.0 ± 0.5 °C. […] Binding of either glycine or ATP was measured by direct titrations of the protein solution in the range 0–1.2 mM and 0–1.0 mM, respectively. […] Spectra were corrected for buffer contribution. Far-UV circular dichroism spectra (195–260 nm) were collected using a JASCO J-715 spectropolarimeter (Easton, MD, USA). […] Each spectrum is the average of three independent measurements.
# as §5
# hSR [12] = biological target: T1, hSR; parameters: method as in PMID 23992455; conditions: wt hSR, cited from earlier work
# hSR [13] = biological target: T1, hSR; parameters: method as in PMID 23992455; conditions: cited from earlier work; for Kd: hSR
# hSR [14] = biological target: T1, hSR; assay: L-Ser dehydration (LDH-coupled assay); type: biochemical; conditions: hSR saturated with ATP
# Protocol: as §1, §2
# [15] = 2 mM ATP, preliminary, data not shown
structure (smiles),measurement,setting,value
Nc1ncnc2c1ncn2[C@@H]1O[C@H](COP(=O)(O)O)[C@@H](O)[C@H]1O [AMP],fold decrease in Km,StTdcB,7.7 fold
same,fold increase in Vmax,StTdcB,3 fold
Nc1ncnc2c1ncn2[C@@H]1O[C@H](COP(=O)(O)OP(=O)(O)OP(=O)(O)O)[C@@H](O)[C@H]1O [ATP],Increase (fold increase of catalytic efficiency kcat/Km in the presence of ATP),hSR [1]; 2 mM ATP vs absence of nucleotide,4.0 fold
same,Increase (fold increase of catalytic efficiency kcat/Km in the presence of ATP),Q89A-hSR [2],2.3 fold
same,Increase (fold increase of catalytic efficiency kcat/Km in the presence of ATP),Q89M-hSR [3],2.8 fold
same,Increase (fold increase of catalytic efficiency kcat/Km in the presence of ATP),hSR [4],2 fold and 1.9 fold
same,Increase (fold increase of catalytic efficiency kcat/Km in the presence of ATP),Q89A-hSR [5],1.6 fold
same,Increase (fold increase of catalytic efficiency kcat/Km in the presence of ATP),Q89M-hSR [6],1.8 fold
same,fold increase of specific dehydratase activity,Q89A-hSR [7]; [15],about 4 fold
same,effect on activity of further addition of ATP,Q89A-hSR [7]; ATP up to 10 mM,not increased
same,cooperativity of ATP binding (activity assay),Q89A-hSR [7]; saturating 300 mM L-Ser,non-cooperative
same,fold increase of specific dehydratase activity,Q89M-hSR [8]; [15],about 4 fold
same,effect on activity of further addition of ATP,Q89M-hSR [8]; ATP up to 10 mM,not increased
same,cooperativity of ATP binding (activity assay),Q89M-hSR [8]; saturating 300 mM L-Ser,non-cooperative
same,EC50,"Q89M-hSR [8]; saturating 300 mM L-Ser, read-out: half-maximal activation (EC50) by ATP, L-Ser dehydratase activity",21 ± 2 µM
same,Increase (fold increase of catalytic efficiency kcat/Km in the presence of ATP),Q89A-hSR [9],3.3 fold
same,Increase (fold increase of catalytic efficiency kcat/Km in the presence of ATP),Q89M-hSR [10],3.9 fold
same,difference between KD and EC50 of ATP,"Q89M-hSR [11]; Q89M-hSR, KD without substrate vs EC50 with 300 mM L-Ser",6 fold
same,cooperativity of ATP binding (fluorimetric titration),"Q89M-hSR [11]; Q89M-hSR, absence of substrate",no cooperativity
same,fold increase in fluorescence emission intensity upon ATP binding,"Q89M-hSR [11]; Q89M-hSR, excitation at 412 nm, absence of substrate",1.65 fold
same,Kd,"Q89M-hSR [11]; Q89M-hSR, ligand 2 Glycine (1 mM)",48 ± 5 µM
same,Kd,"Q89M-hSR [11]; Q89M-hSR, no ligand 2 (absence of substrate/glycine)",154 ± 13 µM
same,fold increase of specific dehydratase activity,hSR [12]; 2 mM ATP,7 fold
same,Hill coefficient n of ATP dependence of L-Ser dehydratase activity,hSR [12]; sigmoidal fit,1.7 ± 0.2 and 1.7
same,EC50,"hSR [12]; sigmoidal fit, read-out: half maximal effective concentration of ATP (EC50), L-Ser dehydratase activity",220 ± 10 µM
same,Kd,hSR [13]; ligand 2 Glycine,4.9 ± 0.6 µM
same,Hill coefficient of nucleotide binding,hSR [13]; human enzyme,about 2
same,"Hill coefficient n, fluorimetric titration with ATP","hSR [13]; wt hSR, sigmoidal fit",1.8 ± 0.1
same,EC50,"hSR [13]; wt hSR, sigmoidal fit, read-out: EC50 of ATP, fluorimetric titration",257 ± 10 µM
"N[C@H](CO)C(=O)O [D-Ser, D-serine]",kcat,hSR [1]; −ATP,0.0283 ± 0.0017 s⁻¹
NCC(=O)O [Glycine],fold higher affinity for Q89M-hSR (vs wt hSR),Q89M-hSR [11]; Q89M-hSR vs hSR,more than 60 fold
same,Kd,"Q89M-hSR [11]; Q89M-hSR, ligand 2 ATP (2 mM)",28 ± 3 µM
same,Kd,"Q89M-hSR [11]; Q89M-hSR, no ligand 2 (absence of ATP)",110 ± 2 µM
same,Kd,hSR [13]; ligand 2 ATP,470 ± 30 µM
same,Kd,hSR [13]; no ligand 2,7000 ± 300 µM
"N[C@@H](CO)C(=O)O [L-Ser, L-serine]",dehydratase activity efficiency relative to racemisation,hSR [14],15 fold
